Experimental data reported in publication PMC10786919, “Design-rules for stapled peptides with in vivo activity and their application to Mdm2/X antagonists” (Nature Communications, 2024).
pEC50: −log10 of the molar value. In brackets after ≈: the same amount, converted by molar mass. Positions of bridges follow the written chain, without caps; N, C: chain ends. Non-standard residues stand in square brackets, D forms with d. Residues, ends and D or L forms follow the SMILES beside them. Trp(6-Cl) = N[C@@H](Cc1c[nH]c2cc(Cl)ccc12)C(=O)O; Lys(N3) = [N-]=[N+]=NCCCC[C@H](N)C(=O)O; hArg = N=C(N)NCCCC[C@H](N)C(=O)O; R8 = C=CCCCCCC[C@@](C)(N)C(=O)O; Cba = N[C@@H](CC1CCC1)C(=O)O; S5 = C=CCCC[C@](C)(N)C(=O)O; βAla = NCCC(=O)O

Experiments:
[1] = Lactate dehydrogenase (LDH) release assay; assay type: cell-based; settings: LDH: Cytotoxicity assay: EC50
Outline: (§1)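 HCT116 cells stably carrying a p53-responsive β-lactamase reporter, seeded at 8000 cells/well, exposed to compound with 0.5% final DMSO. LDH release read with the CytoTox-ONE membrane integrity kit. Values are geometric means of at least three biological replicates.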

in vitro = settings: Nanoclick permeability assay EC50
Outline: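 Azido-peptide permeability was read as loss of NanoBRET signal (donor 450 nm, acceptor 610 nm) after adding NanoBret618-azide at 10 μM final.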

[2] = Experimental LogD (partition coefficient); settings: for logD: not stated, Partition Coeff LogD
[3] = Solubility assay (kinetic solubility, PBS pH 7); assay type: physicochemical; settings: pH 7, PBS; for solubility kinetic: pH 7, aqueous buffer, kinetic from dmso stock, read-out: Solubility
Outline: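 Reference standards were made by diluting the 10 mM stock to 100 µM in acetonitrile:methanol:DMSO 10:80:10. Solubility in µM was calculated as the sample peak area divided by the standard peak area, multiplied by the standard concentration.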

HCT116 cells = assay: Lactate dehydrogenase (LDH) release assay; assay type: cell-based
Outline: as §1

SMILES | pEC50 [1] | cell entry EC50 (in vitro) | EPSA (physchem) | logD [2] | Solubility [3] | Partition Coeff LogD [2] | solubility kinetic [3] | LDH: Cytotoxicity assay: % Effect (HCT116 cells)
CC(=O)N[C@@H](CCCCN=[N+]=[N-])C(=O)NCCC(=O)N[C@@H](CC(C)C)C(=O)N[C@H](C(=O)N[C@@H](Cc1ccccc1)C(=O)N[C@]1(C)CCCCCCC=CCCC[C@@](C)(C(=O)N[C@@H](CO)C(=O)N[C@@H](C)C(=O)N[C@@H](C)C(N)=O)NC(=O)[C@H](CC2CCC2)NC(=O)[C@@H]2CCCCNC(=O)CC[C@H](NC1=O)C(=O)N[C@@H](Cc1ccc(O)cc1)C(=O)N[C@@H](Cc1c[nH]c3ccccc13)C(=O)N[C@@H](C)C(=O)N2)[C@@H](C)O [MP-001] (Ac-[Lys(N3)][βAla]LTF[R8]EYWAK[Cba][S5]SAA-NH2; staple 6-13; lactam 7-11) | < 4.29 | 1150 nM | 173 A^2 | 3.84 |  |  |  | 
CC(=O)N[C@@H](CCCCN=[N+]=[N-])C(=O)NCCC(=O)N[C@@H](CC(C)C)C(=O)N[C@H](C(=O)N[C@@H](Cc1ccccc1)C(=O)N[C@]1(C)CCCCCCC=CCCC[C@@](C)(C(=O)N[C@@H](CO)C(=O)N[C@@H](C)C(=O)N[C@@H](C)C(N)=O)NC(=O)[C@H](CC2CCC2)NC(=O)[C@H](CCC(N)=O)NC(=O)[C@H](C)NC(=O)[C@H](Cc2c[nH]c3ccccc23)NC(=O)[C@H](CCC(=O)O)NC(=O)[C@H](C)NC1=O)[C@@H](C)O [MP-029] (Ac-[Lys(N3)][βAla]LTF[R8]AEWAQ[Cba][S5]SAA-NH2; staple 6-13) | < 4.29 | 70 nM | 182 A^2 |  | Poorly Behaved | Poorly Behaved |  | 
CC(=O)N[C@@H](CCCCN=[N+]=[N-])C(=O)NCCC(=O)N[C@@H](CC(C)C)C(=O)N[C@H](C(=O)N[C@@H](Cc1ccccc1)C(=O)N[C@]1(C)CCCCCCC=CCCC[C@@](C)(C(=O)N[C@@H](CO)C(=O)N[C@@H](C)C(=O)N[C@@H](C)C(N)=O)NC(=O)[C@H](CC2CCC2)NC(=O)[C@H](CCC(N)=O)NC(=O)[C@H](C)NC(=O)[C@H](Cc2c[nH]c3ccccc23)NC(=O)[C@H](Cc2ccc(O)cc2)NC(=O)CNC1=O)[C@@H](C)O [MP-210] (Ac-[Lys(N3)][βAla]LTF[R8]GYWAQ[Cba][S5]SAA-NH2; staple 6-13) | < 4.30 | 279 nM | 198 A^2 | 3.35 |  |  | 2 µM (≈ 3.8 µg/mL) | 
CC(=O)N[C@@H](CCCCN=[N+]=[N-])C(=O)NCCC(=O)N[C@@H](CC(C)C)C(=O)N[C@H](C(=O)N[C@@H](Cc1ccccc1)C(=O)N[C@]1(C)CCCCCCC=CCCC[C@@](C)(C(=O)N[C@@H](CO)C(=O)N[C@@H](C)C(=O)N[C@@H](C)C(N)=O)NC(=O)[C@H](CC2CCC2)NC(=O)[C@@H]2CCCN2C(=O)[C@H](C)NC(=O)[C@H](Cc2c[nH]c3ccccc23)NC(=O)[C@H](Cc2ccc(O)cc2)NC(=O)[C@H](CCC(=O)O)NC1=O)[C@@H](C)O [MP-260] (Ac-[Lys(N3)][βAla]LTF[R8]EYWAP[Cba][S5]SAA-NH2; staple 6-13) | < 4.30 | 246 nM | 197 A^2 |  | Poorly Behaved | Poorly Behaved |  | 
CC(=O)N[C@@H](CCCCN=[N+]=[N-])C(=O)NCCC(=O)N[C@@H](CC(C)C)C(=O)N[C@H](C(=O)N[C@@H](Cc1ccccc1)C(=O)N[C@]1(C)CCCCCCC=CCCC[C@@](C)(C(=O)N[C@@H](CO)C(=O)N[C@@H](C)C(=O)N[C@@H](C)C(N)=O)NC(=O)[C@H](CC2CCC2)NC(=O)CNC(=O)[C@H](C)NC(=O)[C@H](Cc2c[nH]c3ccccc23)NC(=O)[C@H](Cc2ccc(O)cc2)NC(=O)[C@H](CCC(=O)O)NC1=O)[C@@H](C)O [MP-262] (Ac-[Lys(N3)][βAla]LTF[R8]EYWAG[Cba][S5]SAA-NH2; staple 6-13) | < 4.30 | 106 nM | 207 A^2 | 2.85 |  |  | 87 µM (≈ 165 µg/mL) | 
CC(=O)N[C@@H](CCCCN=[N+]=[N-])C(=O)NCCC(=O)N[C@@H](CC(C)C)C(=O)N[C@H](C(=O)N[C@@H](Cc1ccccc1)C(=O)N[C@]1(C)CCCCCCC=CCCC[C@@](C)(C(=O)N[C@@H](CO)C(=O)N[C@@H](C)C(=O)N[C@@H](C)C(N)=O)NC(=O)[C@H](CC2CCC2)NC(=O)[C@H](CCC(N)=O)NC(=O)[C@H](C)NC(=O)[C@H](Cc2c[nH]c3ccccc23)NC(=O)[C@H](Cc2ccc(O)cc2)NC(=O)[C@@H](C)NC1=O)[C@@H](C)O [MP-473] (Ac-[Lys(N3)][βAla]LTF[R8][dA]YWAQ[Cba][S5]SAA-NH2; staple 6-13) | < 4.30 | 197 nM | 213 A^2 | 3.49 | Poorly Behaved |  |  | 
CC(=O)N[C@@H](CCCCN=[N+]=[N-])C(=O)NCCC(=O)N[C@@H](CC(C)C)C(=O)N[C@H](C(=O)N[C@@H](Cc1ccccc1)C(=O)N[C@]1(C)CCCCCCC=CCCC[C@@](C)(C(=O)N[C@@H](CO)C(=O)N[C@@H](C)C(=O)N[C@@H](C)C(N)=O)NC(=O)[C@H](CC2CCC2)NC(=O)[C@@H](C)NC(=O)[C@H](C)NC(=O)[C@H](Cc2c[nH]c3ccccc23)NC(=O)[C@H](Cc2ccc(O)cc2)NC(=O)[C@H](CCC(=O)O)NC1=O)[C@@H](C)O [MP-474] (Ac-[Lys(N3)][βAla]LTF[R8]EYWA[dA][Cba][S5]SAA-NH2; staple 6-13) | < 4.30 | 148 nM | 222 A^2 | 3.07 |  |  | 156 µM (≈ 298 µg/mL) | 
CC(=O)N[C@@H](CCCCN=[N+]=[N-])C(=O)NCCC(=O)N[C@@H](CC(C)C)C(=O)N[C@H](C(=O)N[C@@H](Cc1ccccc1)C(=O)N[C@]1(C)CCCCCCC=CCCC[C@@](C)(C(=O)N[C@H](C)C(=O)N[C@@H](C)C(=O)N[C@@H](C)C(N)=O)NC(=O)[C@H](CC2CCC2)NC(=O)[C@H](CCC(N)=O)NC(=O)[C@H](C)NC(=O)[C@H](Cc2c[nH]c3ccccc23)NC(=O)[C@H](Cc2ccc(O)cc2)NC(=O)[C@H](CCC(=O)O)NC1=O)[C@@H](C)O [MP-475] (Ac-[Lys(N3)][βAla]LTF[R8]EYWAQ[Cba][S5][dA]AA-NH2; staple 6-13) | < 4.30 | 155 nM | 224 A^2 | 2.92 |  |  | 17 µM (≈ 33.2 µg/mL) | 
CC(=O)N[C@@H](CCCCN=[N+]=[N-])C(=O)NCCC(=O)N[C@H](CC(C)C)C(=O)N[C@H](C(=O)N[C@@H](Cc1ccccc1)C(=O)N[C@]1(C)CCCCCCC=CCCC[C@@](C)(C(=O)N[C@@H](CO)C(=O)N[C@H](C)C(=O)N[C@@H](C)C(N)=O)NC(=O)[C@H](CC2CCC2)NC(=O)[C@H](C)NC(=O)[C@H](C)NC(=O)[C@H](Cc2c[nH]c3cc(Cl)ccc23)NC(=O)[C@H](Cc2ccc(O)cc2)NC(=O)[C@H](C)NC1=O)[C@@H](C)O [MP-493] (Ac-[Lys(N3)][βAla][dL]TF[R8]AY[Trp(6-Cl)]AA[Cba][S5]S[dA]A-NH2; staple 6-13) | < 4.30 | 84.5 nM | 187 A^2 | 3.93 |  |  | < 1 µM | 
CC(=O)N[C@@H](CC(C)C)C(=O)N[C@H](C(=O)N[C@@H](Cc1ccccc1)C(=O)NC(C)(C)C(=O)N[C@@H](CCC(=O)O)C(=O)N[C@@H](Cc1ccc(O)cc1)C(=O)N[C@@H](Cc1c[nH]c2ccccc12)C(=O)N[C@@H](CCC(N)=O)C(=O)N[C@H](CC(C)C)C(=O)N[C@@H](CC1CCC1)C(=O)NC(C)(C)C(=O)N[C@@H](CO)C(=O)N[C@@H](C)C(=O)N[C@@H](C)C(N)=O)[C@@H](C)O [MP-788] | < 4.30 |  | 196 A^2 | 2.06 |  |  | 83.5 µM (≈ 139 µg/mL) | 8.3%
CC(=O)N[C@@H](CC(C)C)C(=O)N[C@H](C(=O)N[C@@H](Cc1ccccc1)C(=O)NC(C)(C)C(=O)N[C@H](CCC(=O)O)C(=O)N[C@@H](Cc1ccc(O)cc1)C(=O)N[C@@H](Cc1c[nH]c2ccccc12)C(=O)N[C@@H](CCC(N)=O)C(=O)N[C@@H](CC(C)C)C(=O)N[C@@H](CC1CCC1)C(=O)NC(C)(C)C(=O)N[C@@H](CO)C(=O)N[C@@H](C)C(=O)N[C@@H](C)C(N)=O)[C@@H](C)O [MP-789] | < 4.30 |  | 196 A^2 | 2.12 |  |  | 28 µM (≈ 46.6 µg/mL) | 5.465%
CC(=O)N[C@@H](CCCCN=[N+]=[N-])C(=O)NCCC(=O)N[C@@H](CCCCNC(=N)N)C(=O)N[C@H](C(=O)N[C@@H](Cc1ccccc1)C(=O)N[C@]1(C)CCCCCCC=CCCC[C@@](C)(C(=O)N[C@@H](CO)C(=O)N[C@@H](C)C(=O)N[C@@H](C)C(N)=O)NC(=O)[C@H](CC2CCC2)NC(=O)[C@H](CCC(N)=O)NC(=O)[C@H](C)NC(=O)[C@H](Cc2c[nH]c3ccccc23)NC(=O)[C@H](Cc2ccc(O)cc2)NC(=O)[C@H](CCC(=O)O)NC1=O)[C@@H](C)O [MP-6896] (Ac-[Lys(N3)][βAla][hArg]TF[R8]EYWAQ[Cba][S5]SAA-NH2; staple 6-13) |  | 1130 nM | 203 A^2 | 2.79 |  |  | 2.5 µM (≈ 5.07 µg/mL) | 
CC(=O)N[C@H](CC(C)C)C(=O)N[C@H](C(=O)N[C@@H](Cc1ccccc1)C(=O)N[C@]1(C)CCCCCCC=CCCC[C@@](C)(C(=O)N[C@@H](CO)C(=O)N[C@H](C)C(=O)N[C@@H](C)C(N)=O)NC(=O)[C@H](CC2CCC2)NC(=O)[C@H](CC(C)C)NC(=O)[C@H](CCC(N)=O)NC(=O)[C@H](Cc2c[nH]c3ccccc23)NC(=O)[C@H](Cc2ccc(O)cc2)NC(=O)[C@H](CCC(=O)O)NC1=O)[C@@H](C)O [MP-7201] | < 4.30 |  | 191 A^2 | 2.8 |  |  | 19 µM (≈ 34 µg/mL) | 4.51%
